Some results are limits rather than exact numbers.

The target of one data set is T1, human VR1 (Homo sapiens, UniProt Q8NER1).
T1 construct: expressed in transfected cells
T1 sequence (Q8NER1 whole entry): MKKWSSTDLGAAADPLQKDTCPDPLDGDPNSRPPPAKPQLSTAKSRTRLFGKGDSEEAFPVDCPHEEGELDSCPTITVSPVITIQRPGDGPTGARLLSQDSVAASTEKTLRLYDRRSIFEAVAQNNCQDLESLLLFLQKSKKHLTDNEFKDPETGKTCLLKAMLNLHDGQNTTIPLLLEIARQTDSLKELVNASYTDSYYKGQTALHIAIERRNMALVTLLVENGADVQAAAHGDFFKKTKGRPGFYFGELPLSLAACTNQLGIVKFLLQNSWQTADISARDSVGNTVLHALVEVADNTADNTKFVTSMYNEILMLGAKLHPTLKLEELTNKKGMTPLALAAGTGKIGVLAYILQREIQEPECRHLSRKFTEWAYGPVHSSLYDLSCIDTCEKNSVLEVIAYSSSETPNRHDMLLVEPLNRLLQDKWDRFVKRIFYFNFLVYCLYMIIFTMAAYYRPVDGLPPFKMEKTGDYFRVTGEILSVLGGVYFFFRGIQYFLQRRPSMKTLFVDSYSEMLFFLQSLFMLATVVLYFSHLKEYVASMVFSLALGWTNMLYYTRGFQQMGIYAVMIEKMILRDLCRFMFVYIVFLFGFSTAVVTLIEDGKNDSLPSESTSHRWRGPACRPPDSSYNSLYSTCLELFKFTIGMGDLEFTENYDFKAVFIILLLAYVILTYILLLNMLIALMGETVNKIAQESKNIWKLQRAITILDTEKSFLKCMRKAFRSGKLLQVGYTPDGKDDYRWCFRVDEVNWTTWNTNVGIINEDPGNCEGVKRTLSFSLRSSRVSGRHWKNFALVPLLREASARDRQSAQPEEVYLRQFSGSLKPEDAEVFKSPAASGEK
Put plainly: Capsaicin-induced Ca2+ influx in the human VR1-transfected CHO cell line (Assay 1). The note with it: capsaicin-induced Ca2+ flux; compounds or the salt thereof (e.g., potassium salt); purity about 40 to 90%. The class given is cell-based. The source says:
[Measurement of Capsaicin-induced Ca^2+ Influx in the Human VR1-transfected CHO Cell Line] (Assay 1)
(1) Establishment of the human VR1-CHOluc9aeq cell line
Human vanilloid receptor (hVR1) cDNA was cloned from libraries of axotomized dorsal root ganglia (WO2000/29577). The cloned hVR1 cDNA was constructed with pcDNA3 vector and transfected into a CHOluc9aeq cell line. The cell line contains aequorin and CRE-luciferase reporter genes as read-out signals. The transfectants were cloned by limiting dilution in selection medium (DMEM/F12 medium (Gibco BRL) supplemented with 10% FCS, 1.4 mM Sodium pyruvate, 20 mM HEPES, 0.15% Sodium bicarbonate, 100 U/ml penicillin, 100 μ/ml streptomycin, 2 mM glutamine, non-essential amino acids and 2 mg/ml G418). Ca^2+ influx was examined in the capsaicin-stimulated clones. […] The human VR1-CHOluc9aeq cells were maintained in the selection medium and passaged every 3-4 days at 1-2.5×10^5 cells/flask ([…])
(2) Measurement of Ca^2+ influx using FDSS-3000
Human VR1-CHOluc9aeq cells were suspended in a culture medium which is the same as the selection medium except for G418 and seeded at a density of 1,000 cells per well into 384-well plates (black walled clear-base/Nalge Nunc International). Following the culture for 48 hrs the medium was changed to 2 μM Fluo-3 AM (Molecular Probes) and 0.02% Puronic F-127 in assay buffer (Hank's balanced salt solution (HBSS), 17 mM HEPES (pH7.4), 1 mM Probenecid, 0.1% BSA) and the cells were incubated for 60 min at 25° C. After washing twice with assay buffer the cells were incubated with a test compound or vehicle for 20 min at 25° C. Mobilization of cytoplasmic Ca^2+ was measured by FDSS-3000 (λex=488 nm, λem=540 nm/Hamamatsu Photonics) for 60 sec after the stimulation with 10 nM of capsaicin (Nacalai Tesque). Integral R of the fluorescence changes was calculated in the samples treated with a test compound and vehicle respectively. Inhibitory effect of the compound was calculated by a comparison of the integral R values.
Take `O=C(Nc1cccc(-c2ccccc2)c1)Nc1c(Cl)ccc2ccc(O)cc12` [N-(1,1′-biphenyl-3-yl)-N′-(2-chloro-7-hydroxy-1-naphthyl)urea]: the IC50 (as a rule, the midpoint of a concentration-inhibition curve) was not above 10 nM. Consider `O=C(Nc1cccc(-c2ccccc2)c1)Nc1cccc2ccc(O)cc12` [N-(1,1′-biphenyl-3-yl)-N′-(7-hydroxy-1-naphthyl)urea], for which the IC50 is not above 10 nM. On to `O=C(Nc1ccc2ccccc2c1)Nc1c(Cl)cc(Cl)c2ccc(O)cc12` [N-(2,4-dichloro-7-hydroxy-1-naphthyl)-N′-(2-naphthyl)urea], for which the IC50 is not above 10 nM. For `O=C(Nc1cccc(C(F)(F)F)c1)Nc1c(Cl)cc(Cl)c2ccc(O)cc12` [N-(2,4-dichloro-7-hydroxy-1-naphthyl)-N′-[3-(trifluoromethyl)phenyl]urea], the IC50 is not above 10 nM. The same measure, in the same setting: the figure for `O=C(Nc1ccc(F)c(C(F)(F)F)c1)Nc1c(Cl)cc(Cl)c2ccc(O)cc12` [N-(2,4-dichloro-7-hydroxy-1-naphthyl)-N′-[4-fluoro-3-(trifluoromethyl)phenyl]urea] is not above 10 nM. Turning to `O=C(Nc1ccc(Cl)c(C(F)(F)F)c1)Nc1c(Cl)ccc2ccc(O)cc12` [N-(2-chloro-7-hydroxy-1-naphthyl)-N′-[4-chloro-3-(trifluoromethyl)phenyl]urea], the IC50 is not above 10 nM.

Take `Cc1cc(Cl)c(NC(=O)Nc2ccc(Cl)c(C(F)(F)F)c2)c2cc(O)ccc12` [N-(2-chloro-7-hydroxy-4-methyl-1-naphthyl)-N′-[4-chloro-3-(trifluoromethyl)phenyl]urea]: the half-maximal inhibitory concentration (IC50) was not above 10 nM. On the same count and under the same terms, the figure for `O=C(Nc1cccc(-c2ccccc2Cl)c1)Nc1c(Cl)cc(Cl)c2ccc(O)cc12` [N-(2′-chloro-1,1′-biphenyl-3-yl)-N′-(2,4-dichloro-7-hydroxy-1-naphthyl)urea] is not above 10 nM; for `O=C(Nc1cccc(Cl)c1)Nc1c(Br)cc(Br)c2ccc(O)cc12` [N-(3-chlorophenyl)-N′-(2,4-dibromo-7-hydroxy-1-naphthyl)urea] it is not above 10 nM; for `O=C(NCc1ccc(Br)cc1)Nc1c(Cl)ccc2ccc(O)cc12` [N-(4-bromobenzyl)-N′-(2-chloro-7-hydroxy-1-naphthyl)urea] it is not above 10 nM. Consider `O=C(Nc1ccc(Cl)c(C(F)(F)F)c1)Nc1c(Cl)cc(Br)c2ccc(O)cc12` [N-(4bromo-2-chloro-7-hydroxy-1-naphthyl)N′-[4-chloro-3-(trifluoromethyl)phenyl]urea], for which the IC50 is not above 10 nM. Still for that read-out and setting: in the case of `O=C(Nc1cccc(Oc2ccccc2)c1)Nc1cccc2ccc(O)cc12` [N-(7-hydroxy-1-naphthyl)-N′-(3-phenoxyphenyl)urea] it was not above 10 nM; in that of `O=C(Nc1ccc(Oc2ccccc2)cc1)Nc1cccc2ccc(O)cc12` [N-(7-hydroxy-1-naphthyl)-N′-(4-phenoxyphenyl)urea], not above 10 nM. The same measure, in the same setting: in the case of `O=C(Nc1ccc(C(F)(F)F)cc1)Nc1cccc2ccc(O)cc12` [N-(7-hydroxy-1-naphthyl)-N′-[4-(trifluoromethyl)phenyl]urea] it was not above 10 nM. Turning to `O=C(Nc1ccc(Oc2ccc(Cl)cc2)cc1)Nc1cccc2ccc(O)cc12` [N-[4-(4-chlorophenoxy)phenyl]-N′-(7-hydroxy-1-naphthyl)urea], the IC50 is not above 10 nM. With `O=C(Nc1ccc(Cl)c(C(F)(F)F)c1)Nc1c(Br)cc(Br)c2ccc(O)cc12` [N-[4-chloro-3-(trifluoromethyl)phenyl]-N′-(2,4-dibromo-7-hydroxy-1-naphthyl)urea], the IC50 is not above 10 nM. In the case of `O=C(Nc1ccc(Cl)c(C(F)(F)F)c1)Nc1c(Cl)cc(Cl)c2ccc(O)cc12` [N-[4-chloro-3-(trifluoromethyl)phenyl]-N′-(2,4-dichloro-7-hydroxy-1-naphthyl)urea], the IC50 is not above 10 nM. With `Cc1ccc(NC(=O)Nc2ccc(Cl)c(C(F)(F)F)c2)c2cc(O)ccc12` [N-[4-chloro-3-(trifluoromethyl)phenyl]-N′-(7-hydroxy-4-methyl-1-naphthyl)urea], the IC50 is not above 10 nM. On the same count and under the same terms, the figure for `CCOC(=O)c1cccc(NC(=O)Nc2c(Cl)cc(Cl)c3ccc(O)cc23)c1` [ethyl 3-({[(2,4-dichloro-7-hydroxy-1-naphthyl)amino]carbonyl}amino)benzoate] is not above 10 nM.

Test system in the next data set: not given
Assay: not given
Conditions: not given
With `O=C(Nc1c(Cl)cc(Cl)c2ccc(O)cc12)NC1CCCc2ccccc21` (centres unmarked) [Example 4-13], the melting point (in general, the temperature, or range, at which the solid turns liquid) was 238 °C (dec.).

Take `O=C(Nc1ccc(Cc2ccccc2)cc1)Nc1c(Cl)cc(Cl)c2ccc(O)cc12` [Example 4-14]: the melting point is 230 °C (dec.). For `O=C(Nc1cccc(Oc2ccccc2)c1)Nc1c(Cl)cc(Cl)c2ccc(O)cc12` [Example 4-15], the melting point was 226 °C (dec.). `O=C(Nc1ccc(F)cc1Cl)Nc1c(Cl)cc(Cl)c2ccc(O)cc12` [Example 4-16]: the melting point was 298 °C (dec.). In the case of `COc1cccc(-c2cccc(NC(=O)Nc3c(Cl)cc(Cl)c4ccc(O)cc34)c2)c1` [Example 4-17], the melting point was 246 °C (dec.). `Cc1ccc(-c2cccc(NC(=O)Nc3c(Cl)cc(Cl)c4ccc(O)cc34)c2)cc1Cl` [Example 4-18]: the melting point is 234 °C (dec.).

`O=C(Nc1cccc(-c2ccc(Cl)c(F)c2)c1)Nc1c(Cl)cc(Cl)c2ccc(O)cc12` [Example 4-19]: the melting point is 241 °C (dec.). For the molecule `O=C(Nc1ccc2c(c1)CCC2)Nc1c(Cl)cc(Cl)c2ccc(O)cc12` [Example 4-32], the melting point is more than 300 °C. Take `O=C(Nc1ccc2c(c1)C(=O)OC2)Nc1c(Cl)cc(Cl)c2ccc(O)cc12` [Example 4-35]: the melting point was 290 to 291 °C (dec.). Same read-out and setting: in the case of `O=C(Nc1ccc2c(c1)C(=O)c1ccccc1-2)Nc1c(Cl)cc(Cl)c2ccc(O)cc12` [Example 4-36] it was 236 °C (dec.).

Take `O=C(Nc1cccc2c1C(=O)c1ccccc1-2)Nc1c(Cl)cc(Cl)c2ccc(O)cc12` [Example 4-37]: the melting point is more than 250 °C. On the same count and under the same terms, in the case of `O=C(Nc1ccc(F)c(F)c1)Nc1c(Cl)cc(Cl)c2ccc(O)cc12` [Example 4-38] it was 244 °C (dec.); in that of `Cc1cc(NC(=O)Nc2c(Cl)cc(Cl)c3ccc(O)cc23)ccc1Cl` [Example 4-39], 240 °C (dec.). Same read-out and setting: the figure for `O=C(Nc1ccc2c(c1)CCCC2=O)Nc1c(Cl)cc(Cl)c2ccc(O)cc12` [Example 4-40] is 230 °C (dec.); for `COc1ccc(NC(=O)Nc2c(Cl)cc(Cl)c3ccc(O)cc23)cc1F` [Example 4-41] it is 235 to 238 °C (dec.).

For the molecule `Cc1ccc(NC(=O)Nc2c(Cl)cc(Cl)c3ccc(O)cc23)cc1F` [Example 4-42], the melting point is 261 to 264 °C (dec.).

As for `Cc1cc(NC(=O)Nc2c(Cl)cc(Cl)c3ccc(O)cc23)ccc1F` [Example 4-45], the melting point is 250 to 252 °C (dec.).

For `CC(C)(C)c1cc(NC(=O)Nc2c(Br)cc(Br)c3ccc(O)cc23)no1` [Example 5-1, N-(5-tert-Butyl-3-isoxazolyl)-N′-(2,4-dibromo-7-hydroxy-1-naphthyl)urea], the melting point is 214.5 °C. In the case of `CC1COC(c2cccc(NC(=O)Nc3c(Cl)ccc4ccc(O)cc34)c2)=N1` (centres unmarked) [Example 5-2], the melting point is 162 °C (dec.). With `CC(=O)Nc1ccc2cccc(NC(=O)Nc3ccc(Cl)c(C(F)(F)F)c3)c2c1` [Example 9-1, N-{8-[({[4-Chloro-3-(trifluoromethyl)phenyl]amino}carbonyl)amino]-2-naphthyl}acetamide], the melting point fell in the range of 241 to 242 °C. On the same count and under the same terms, the figure for `CS(=O)(=O)Nc1ccc2cccc(NC(=O)Nc3ccc(Cl)c(C(F)(F)F)c3)c2c1` [Example 10-1, N-{8-[({[4-Chloro-3-(trifluoromethyl)phenyl]amino}carbonyl)amino]-2-naphthyl}methanesulfonamide] is 225 to 226 °C; for `O=C(Cc1cccc2ccc(O)cc12)Nc1ccc(Cl)c(C(F)(F)F)c1` [Example 11-1, N-[4-Chloro-3-(trifluoromethyl)phenyl]-2-(7-hydroxy-1-naphthyl)acetamide] it is 162 °C.

For the origin of these results see patent US20040259875A1, “Amine derivatives” (priority 2001, published 2004).
